# Results published in patent US20050042213A1, “Methods and pharmaceutical compositions for modulating heparanase activation and uses thereof” (InSight Biopharmaceuticals Ltd., priority 2003, published 2005).
# pIC50: −log10 of the molar value. Where two headings read alike, the source gives them in different places. Where a SMILES comes first, the peptide text is derived from it. Where no end group is shown, it is not given here. [ ]: non-standard residue; d: D form. The star is where a group is joined. Sta = CC(C)C[C@H](N)[C@@H](O)CC(=O)O; Isovaleryl = CC(C)CC(=O)*
# Assays:
# Cathepsin B = conditions: value reported in the literature (M. Murata et al., FEBS Lett., 280, 307, 1991); cited from earlier work
# pro-heparanase (H60) [1] = biological target: T1, pro-heparanase (H60) (Homo sapiens, UniProt Q9Y251, K307R); assay: Processing and activation of pro-heparanase in vitro with cathepsin B and D in the presence of heparin (Western blot, DMB assay); format: biochemical; conditions: cathepsin B and/or cathepsin D; for activation of pro-heparanase in vitro (heparanase activity): heparin-sepharose
# T1 sequence (Q9Y251 36-543 K307R): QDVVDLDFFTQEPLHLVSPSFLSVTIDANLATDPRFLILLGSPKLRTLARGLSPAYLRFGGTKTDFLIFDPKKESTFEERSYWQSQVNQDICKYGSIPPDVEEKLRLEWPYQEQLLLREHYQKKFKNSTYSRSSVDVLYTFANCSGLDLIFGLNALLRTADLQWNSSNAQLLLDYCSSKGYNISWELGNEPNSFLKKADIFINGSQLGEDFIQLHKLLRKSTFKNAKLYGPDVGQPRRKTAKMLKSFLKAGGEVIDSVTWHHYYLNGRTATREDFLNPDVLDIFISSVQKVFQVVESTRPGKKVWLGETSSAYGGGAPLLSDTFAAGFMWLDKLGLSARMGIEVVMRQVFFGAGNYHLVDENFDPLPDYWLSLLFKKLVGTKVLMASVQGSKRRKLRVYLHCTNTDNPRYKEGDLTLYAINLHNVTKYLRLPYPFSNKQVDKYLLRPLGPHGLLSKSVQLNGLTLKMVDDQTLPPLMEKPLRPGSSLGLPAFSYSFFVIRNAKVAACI
# Method: Western blot analysis—Western blot analysis was performed using rabbit anti-heparanase polyclonal antibodies as described in U.S. Pat. Nos. 6,177,545; 6,531,129; and 6,562,950.
# Following a 17 hours incubation at room temperature, reaction products were filtered to a new plate and quantified using di-methyl-methylene-blue, as described in U.S. Pat. No. 6,190,875.
# Assay mixtures contained heparin (Sigma, H3393) or heparinomimetic molecules ethane-1,2-disulfonic acid (Sigma, E2269) and heparin disaccharide IVA (Sigma, H0895) for western blot analysis or heparin sepharose beads for activation assays, in 200 mM acetate buffer, pH 5.5, 4 mM EDTA and 8 mM DTT, with either Cathepsin B, Cathepsin D or both. Following a 17 hours of incubation at room temperature, reaction products were examined by western blot analysis or filtered to a new plate and quantified using di-methyl-methylene-blue, as described in U.S. Pat. No. 6,190,875 for activation assay.
# 293 cell extract = assay: Cleavage of Z-Pro-Lys-Lys-Glu-AMC (Peptide 1) by 293 cell extract and its inhibition by protease inhibitors; format: biochemical, human; design: % Inhibition: concentration or dose not given beside the values; conditions: inhibition of Z-Pro-Lys-Lys-Glu-AMC cleavage by 293 cell extract
# Method: Following a 20 minutes incubation at 37° C., fluorescence released due to proteolytic activity was determined using a BMG POLARstar™ Galaxy fluorometer: excitation at 390 nm and emission at 460 nm.
# VEGF = biological target: T2, VEGF (Homo sapiens, UniProt P15692); assay: Elisa assay for binding of VEGF to heparin; conditions: inhibition of VEGF binding to heparin
# T2 sequence (P15692 27-191 isoform P15692-4): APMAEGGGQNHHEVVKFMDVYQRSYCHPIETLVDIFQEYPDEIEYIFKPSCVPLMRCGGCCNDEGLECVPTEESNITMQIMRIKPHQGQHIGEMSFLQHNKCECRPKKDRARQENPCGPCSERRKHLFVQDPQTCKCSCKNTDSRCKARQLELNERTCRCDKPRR
# Method: Elisa assay for determination of binding of VEGF to heparin—96 well microplates were coated overnight with Heparin-albumin (Lizard) and blocked with 1% BSA in PBS with 0.05% Tween and 0.01% thimerosal for 2 hrs. VEGF was added to the plates at a concentration of 2 ng/ml and incubated for 45 min. at 23-25° C. The amount of VEGF bound to heparin was detected using anti-VEGF monoclonal antibody (Sigma Cat. # V4758) at a concentration of 0.26 μg/ml and secondary antibodies Sheep anti-mouse IgG linked to horseradish peroxidase (1:2000). TMB (Pierce Cat. #34021) was used as a substrate for peroxidase.
# (§1) The plates were read at 450 nm with a reference wavelength of 630 nm using a VERSAmax plate reader. […] Percent inhibition was calculated as compared with the control reactions pre-incubated with 1% DMSO only.
# β-FGF = biological target: T3, β-FGF (Homo sapiens, UniProt P09038); assay: Elisa assay for binding of β-FGF to heparin; conditions: inhibition of β-FGF binding to heparin
# T3 construct: purchased Sigma F0291
# Method: Elisa assay for determination of binding of β-FGF to heparin—96 well microplates were coated overnight with Heparin-albumin (Lizard) and blocked with 1% BSA in PBS with 0.05% Tween and 0.01% thimerosal for 2 hrs. β-FGF was added to the plates at a concentration of 0.8 ng/ml and incubated for 45 min at 23-25° C. The amount of β-FGF bound to heparin was detected using anti-FGF monoclonal antibody (Sigma Cat. # F6162) at a concentration of 2.5 ng/ml and secondary antibodies Sheep anti-mouse IgG linked to horseradish peroxidase (1:3000). TMB (Pierce Cat. #34021) was used as a substrate for peroxidase.
# as §1
# heparanase (H53) = biological target: T4, heparanase (H53) (Homo sapiens, UniProt Q9Y251, K307R); assay: Heparanase activity inhibition (H53), DMB assay; format: biochemical; conditions: for pIC50: heparanase activity inhibition (H53), NI = no inhibition
# T4 sequence (Q9Y251 158-543 K307R limits assumed): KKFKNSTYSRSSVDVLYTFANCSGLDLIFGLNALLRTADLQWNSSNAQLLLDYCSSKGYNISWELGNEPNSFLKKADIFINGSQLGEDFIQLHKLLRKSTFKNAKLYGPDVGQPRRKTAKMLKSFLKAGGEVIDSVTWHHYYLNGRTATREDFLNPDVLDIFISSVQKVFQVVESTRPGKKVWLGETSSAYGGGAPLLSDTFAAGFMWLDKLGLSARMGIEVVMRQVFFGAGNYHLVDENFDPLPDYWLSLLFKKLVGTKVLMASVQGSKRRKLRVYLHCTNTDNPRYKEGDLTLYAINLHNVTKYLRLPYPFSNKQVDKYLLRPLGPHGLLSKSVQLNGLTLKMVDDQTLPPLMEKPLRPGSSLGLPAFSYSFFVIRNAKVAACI
# T4 sequence (Q9Y251 36-109 limits assumed): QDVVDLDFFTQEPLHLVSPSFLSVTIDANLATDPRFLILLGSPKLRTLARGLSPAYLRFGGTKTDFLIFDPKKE
# Method: At the end of the incubation, the cells were lysed by three consecutive cycles of freezing and thawing in a −80° C. Freezer and a 37° C. shaker. Formation of active heparanase was detected by determination of heparanase activity in DMB assay as described in patent application U.S. Pat. No. 6,190,875B.
# pro-heparanase (H60) [2] = biological target: T1, pro-heparanase (H60); assay: Pro-heparanase activation in a cell-based assay (293 cells, DMB assay); conditions: inhibition of pro-heparanase activation (H60); Table 15
# HUVEC cell = assay: Cell Migration Assay (Boyden chamber); format: cell-based; conditions: Homo sapiens, HUVEC cells, 5 h, read-out: Inhibition of chemotaxis IC50
# Method: (§2) Cord formation and cell migration assays were executed following explicit directives provided by the inventors of the present invention by the National Cancer Institute (Biological Testing Branch, Developmental Therapeutics Program, DCTD, NCI, Fairview Center, Suite 205, 1003 West 7th Street, Frederick, Md. 21701-8527).
# Cell Migration Assay—Migration was assessed using a 48-well Boyden chamber including 8 μm pore size collagen-coated (10 μg/ml rat tail collagen; Collaborative Laboratories) polycarbonate filters (Osmonics, Inc.). The bottom chamber wells included 27-29 μl of DMEM medium alone (baseline) or medium containing chemo-attractant (bFGF, VEGF or Swiss 3T3 cell conditioned medium). The top chambers included 45 μl of HUVEC cell suspension (1×10^6 cells/ml) prepared in DMEM+1% BSA with or without the test compound. Followinf 5 h of incubation at 37° C., the membrane was rinsed with PBS, fixed and stained in Diff-Quick solutions. The filter was placed on a glass slide with the migrated cells facing down and cells on top were removed using a Kimwipe. The testing was performed in 4-6 replicates where five fields were counted from each well. Negative unstimulated control values were subtracted from stimulated control and drug treated values. Data wad plotted as mean migrated cell±S.D. IC50 was calculated from the plotted data.
# HUVEC cells = assay: Cord Formation Assay; format: cell-based; conditions: Homo sapiens; HUVEC cells on matrigel, 24 h; read-out: Inhibition of cord formation IC50
# Method: as §2
# Cord Formation Assay—Matrigel (60 μl of 10 mg/ml; Collaborative Lab # 35423) was placed in each well of an ice-cold 96-well plate. The plate was incubated at room temperature for 15 minutes and then transferred to 37° C. for 30 minutes to permit matrigel polymerization. Concomitantly with plate coating, HUVEC cells were diluted in EGM-2 (Clonetic # CC3162) at a concentration of 2×10^5 cells/ml. Each test compound was prepared at a 2 fold higher concentration than desired (5 concentration levels) using the same medium. Cells (500 μl) and 2× drug (500 μl) were mixed and 200 μl of this suspension were placed in duplicates on the polymerized matrigel. Following 24 h incubation, triplicate pictures were taken for each concentration using a Bioquant Image Analysis system. Drug effect (IC50) was assessed by comparing to untreated controls and measuring the length of cords formed and number of junctions.
# Heparanase = biological target: T5, Heparanase (Homo sapiens, UniProt Q9Y251, K307R); assay: Dimerization assay (H53 hetero-dimer formation, di-methyl-methylene-blue); format: biochemical
# T5 sequence (Q9Y251 158-543 K307R limits assumed): T4 sequence (Q9Y251 158-543 K307R limits assumed)
# T5 sequence (Q9Y251 36-109 limits assumed): T4 sequence (Q9Y251 36-109 limits assumed)
# Source text: Dimerization assay—Activation assay using di-methyl-methylene-blue was effected as described in U.S. Pat. No. 6,190,875.
# pro-heparanase (H60) [3] = biological target: T1, pro-heparanase (H60); assay: Circular dichroism spectrometry of pro-heparanase
# Method: Circular Dichroism spectrometry—Circular Dichroism spectra were recorded using a JASCO 500 spetropolarimeter. Far Ultraviolet measurements (260-200 nm) were performed in a 0.1 mm demountable cuvette at 25° C., scanning at a rate of 10 nm/min. Pro-heparanase was assayed at a concentration of 0.72 mg/ml in 20 mM sodium phosphate buffer pH 6.8 supplemented with 300 mM NaCl. Effect of heparin on pro-heparanase spectra was determined at a concentration of 100 μM, and the inhibitor was added at a concentration of 15 μM. Base-line recordings were performed in the presence and absence of heparin to correct the pro-heparanase spectra.
# [4] = inhibition of H53 hetero-dimer formation by H8-derived peptides, read-out: IC50 H53
# T3 sequence (P09038 143-288): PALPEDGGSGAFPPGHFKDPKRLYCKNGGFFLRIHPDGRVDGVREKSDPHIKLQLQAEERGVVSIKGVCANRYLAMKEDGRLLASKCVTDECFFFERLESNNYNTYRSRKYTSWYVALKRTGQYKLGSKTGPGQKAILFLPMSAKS
compound,measurement,setting,value
CCCNC(=O)[C@H]1O[C@@H]1C(=O)N[C@H](C(=O)N1CCC[C@H]1C(=O)O)[C@@H](C)CC [CA-074],pIC50,Cathepsin B,[…]
same,activation of pro-heparanase in vitro (heparanase activity),pro-heparanase (H60) [1],inhibited this activation
same,% Inhibition,293 cell extract,96%
O=C(O)CCCN1C(=O)C(=Cc2ccc(-c3cccc([N+](=O)[O-])c3)o2)SC1=S [Compound 4],pIC50,VEGF,4.75
same,pIC50,β-FGF,4.27
same,heparanase activity inhibition (H53) in addition to inhibition of pro-heparanase activation,heparanase (H53),dual activity
same,pIC50,heparanase (H53),5.52
same,pIC50,pro-heparanase (H60) [2],6.80
O=C(O)CCCN1C(=O)C(=Cc2ccc(-c3ccc(Cl)cc3)o2)SC1=S [Compound 6],pIC50,VEGF,4.75
same,pIC50,β-FGF,4.62
same,pIC50,HUVEC cell,5.40
same,heparanase activity inhibition (H53) in addition to inhibition of pro-heparanase activation,heparanase (H53),dual activity
same,pIC50,heparanase (H53),4.44
same,pIC50,HUVEC cells,5.49
same,pIC50,pro-heparanase (H60) [2],6.06
COCCCN1C(=O)C(=Cc2ccc(-c3ccc(Cl)cc3)o2)SC1=S [Compound 58],pIC50,VEGF,6.70
same,pIC50,β-FGF,6.70
same,pIC50,pro-heparanase (H60) [2],6.04
O=C1/C(=C\c2ccc(-c3ccccc3Cl)o2)SC(=S)N1C1CCS(=O)(=O)C1 (stereo not shown) [Compound 59],pIC50,VEGF,6.40
same,pIC50,β-FGF,6.40
same,pIC50,HUVEC cell,6.60
same,pIC50,HUVEC cells,6.40
same,pIC50,pro-heparanase (H60) [2],6.62
"O=S(=O)(O)CCS(=O)(=O)O [Compound E2269, ethane-1,2-disulfonic acid]",processing of pro-heparanase in vitro (Western blot),pro-heparanase (H60) [1],allowed processing of the H60
CC(=O)N[C@H]1C(O)O[C@H](CO)[C@@H](O[C@@H]2OC(C(=O)O)=C[C@H](O)[C@H]2O)[C@@H]1O (stereo partly shown) [heparin disaccharide IVA],processing of pro-heparanase in vitro (Western blot),pro-heparanase (H60) [1],allowed processing of the H60
CC(C)CC(=O)N[C@H](C(=O)N[C@H](C(=O)N[C@@H](CC(C)C)[C@@H](O)CC(=O)N[C@@H](C)C(=O)N[C@@H](CC(C)C)[C@@H](O)CC(=O)O)C(C)C)C(C)C [pepstatin] (Isovaleryl-VV[Sta]A[Sta]-OH),processing of pro-heparanase in vitro (Western blot),pro-heparanase (H60) [1],No processing occurred
same,activation of pro-heparanase in vitro (heparanase activity),pro-heparanase (H60) [1],inhibited this activation
same,% Inhibition,293 cell extract,0%
CTWHHYYLNGRTATR [Pep-25],pIC50,"Heparanase; H45-derived peptide, inhibition of H53 hetero-dimer formation, read-out: IC50 Heparanase",4.68
DPRFLILL [Compound P8-16],pIC50,Heparanase; [4],5.22
FLILLGSPKLRTL [Compound P8-8],pIC50,Heparanase; [4],5.10
LRTLARGLSPAYL [Compound P8-5],pIC50,Heparanase; [4],4.74
PRFLILL [Compound P8-11],pIC50,Heparanase; [4],5.85
PRFLILLGSPKLR [Compound P8-4],pIC50,Heparanase; [4],5.64
RFLILL [Compound P8-18],pIC50,Heparanase; [4],5.30
heparin [reference compound],conformational change in pro-heparanase,pro-heparanase (H60) [3],significant conformational change
same,processing of pro-heparanase in vitro (Western blot),pro-heparanase (H60) [1],heparanase was processed by cathepsin D
